Measured values reported in patent publication US7132458B2, “Oxidized carotenoid fractions and ketoaldehyde useful as cell-differentiation inducers, cytostatic agents, and anti-tumor agents” (Chemaphor Inc., priority 1994, dated 2006).

What was measured:
[1] = tested on: D 341 medulloblastoma (brain); test: Inhibition of proliferation and apoptosis, flow cytometry; format: cell-based; conditions: Homo sapiens, D341, 20–100 μM, 24, 48, 72 and 96 hours, read-out: Relative Inhibition of Proliferation
Description: (§1) The effect of the ketoaldehyde upon the inhibition of cell proliferation in cultured cancer cells was determined using a conventional, fluorescence-based anti-proliferative assay and a flow cytometry method. The extent of apoptosis was determined for some cell lines as well.
(§2) The effect of different concentrations of the ketoaldehyde upon the proliferation of the SW480 colorectal and MCF-7 breast cancer cell lines as a function of time is provided in FIGS. 12 and 13, respectively. The inhibition of proliferation in individual cell lines is summarized in Table 10, which provides a relative ranking of the ketoaldehyde's IC50 for each cell line.

[2] = tested on: HCC 1143 breast carcinoma; test: as above; format: cell-based; conditions: Homo sapiens, HCC1143, 20–100 μM, 24, 48, 72 and 96 hours, read-out: Relative Inhibition of Proliferation
Description: as §1, §2

[3] = tested on: HL-60 acute promyelocytic leukemia; test: as above; format: cell-based; conditions: Homo sapiens, 20–100 μM, 24, 48, 72 and 96 hours, read-out: Relative Inhibition of Proliferation
Description: as §1, §2

[4] = tested on: MCF-7 breast adenocarcinoma; test: as above; format: cell-based; conditions: Homo sapiens, MCF7, 20–100 μM, 24, 48, 72 and 96 hours, read-out: Relative Inhibition of Proliferation
Description: as §1, §2

[5] = tested on: NCI-H23 non-small cell lung cancer; test: as above; format: cell-based; conditions: Homo sapiens, 20–100 μM, 24, 48, 72 and 96 hours, read-out: Relative Inhibition of Proliferation
Description: as §1, §2

[6] = tested on: SK-Mel malignant melanoma epidermal; test: as above; format: cell-based; conditions: Homo sapiens, 20–100 μM, 24, 48, 72 and 96 hours, read-out: Relative Inhibition of Proliferation
Description: as §1, §2

[7] = tested on: SW480 colorectal adenocarcinoma; test: as above; format: cell-based; conditions: Homo sapiens, 20–100 μM, 24, 48, 72 and 96 hours, read-out: Relative Inhibition of Proliferation
Description: as §1, §2

HCT116 colon cancer = test: Inhibition of proliferation, fluorescence-based assay; format: cell-based; conditions: Homo sapiens, HCT-116, 10–175 μM, 72 hours, read-out: Relative Inhibition of Proliferation
Description: as §1, §2

HT29 colon cancer = test: as above; format: cell-based; conditions: Homo sapiens, HT-29, 10–175 μM, 72 hours, read-out: Relative Inhibition of Proliferation
Description: as §1, §2

IMR32 neuroblastoma = test: as above; format: cell-based; conditions: Homo sapiens, IMR-32, 10–175 μM, 72 hours, read-out: Relative Inhibition of Proliferation
Description: as §1, §2

[8] = tested on: K562 chronic myelogenous leukemia; test: as above; format: cell-based; conditions: Homo sapiens, 10–175 μM, 72 hours, read-out: Relative Inhibition of Proliferation
Description: as §1, §2

[9] = tested on: NB4 acute promyelocytic leukemia; test: as above; format: cell-based; conditions: Homo sapiens, 10–175 μM, 72 hours, read-out: Relative Inhibition of Proliferation
Description: as §1, §2

[10] = tested on: SW480 human colorectal tumor; test: Human xenograft tumor growth, nude mice; format: in vivo, mouse; conditions: 40 mg/kg body weight three times per week, FIG. 14
Description: FIG. 14 is a graph illustrating the inhibition of growth by the ketoaldehyde of a tumor derived from human colorectal cancer cells. Balb/c nude mice were inoculated subcutaneously in the flank with 5.0×10^6 cells of the SW-480 human colorectal adenocarcinoma cell line. There were 7 control animals and 7 animals in the treatment group. The administration schedule was 40 mg/kg of ketoaldehyde in 20% ethanol in saline given by intraperitoneal injection 3 times per week (Monday, Wednesday and Friday).
The ketoaldehyde provides a significant degree of tumor growth control for a period of more than 67 days in a nude mouse xenograft model of human colon cancer (human colon cancer cell line, SW480; see FIG. 14).

LS174T colorectal tumor = test: Human xenograft tumor growth, SCID mice; format: in vivo, mouse; conditions: thrice-weekly dosing 40 mg/kg
[11] = tested on: MCF-7 human breast cancer tumor; test: Human xenograft tumor growth, nude mice; format: in vivo, mouse; conditions: 40 mg/kg body weight
Source text: […] […] While the MCF-7 cell line appears to be less susceptible to the ketoaldehyde than the SW480 cell line, it should be noted that the MCF-7-derived tumors grow more aggressively than those derived from SW480, which necessitated using 20-fold fewer MCF-7 cells to obtain an initially slower rate of tumor growth.

[12] = tested on: LNCaP-FGC-10 prostate tumors; test: Human xenograft tumor growth, nude mice; format: in vivo, mouse
Source text: The ketoaldehyde is also active against human LNCaP-FGC-10 prostate tumors grown in nude mice.

Pilot toxicity study = format: in vivo
Description: Significant inhibition of tumor growth has been obtained with doses of only 10–40 mg/kg body weight. Thus, the ketoaldehyde has a therapeutic index (400/(10–40)) of approximately 10 to 40.

Lewis lung carcinoma = Lewis lung carcinoma model, lung metastases; format: in vivo, mouse
Description: The well-known Lewis lung carcinoma model was used as follows: cells were injected subcutaneously into the flanks of C57 BL/6 mice, which were assigned into control and treated groups containing ten animals per group. On day 8, the tumor was excised. The ketoaldehyde (200 mg/kg body weight) in 20% aqueous ethanol or drug vehicle (aqueous ethanol) was administered intraperitoneally on days 9, 11, 13, 15 and 19. On day 22, the animals were sacrificed and their lungs were removed. The lungs were weighed and the number of metastases determined by counting the nodules established in each lung.

HCT116 = conditions: from U.S. Ser. No. 08/527,039; cited from earlier work
IMR32 = conditions: from U.S. Ser. No. 08/527,039; cited from earlier work
K562 = conditions: from U.S. Ser. No. 08/527,039; cited from earlier work
NB4 = conditions: from U.S. Ser. No. 08/527,039; cited from earlier work
[13] = tested on: DA-3 mammary adenocarcinoma; conditions: over 28 days; from U.S. Ser. No. 08/527,039; cited from earlier work

CC(=O)C=CC=C(C)C=O [the ketoaldehyde, 2-methyl-6-oxo-2,4-heptadienal]
IC50 [1]: ~50 µM | IC50 [2]: > 100 µM | IC50 [3]: ~50 µM | IC50 [4]: ~50 µM | IC50 [5]: ~50 µM | IC50 [6]: ~100 µM | IC50 [7]: ~50 µM | IC50 (HCT116 colon cancer): ~50 µM | IC50 (HT29 colon cancer): ~100 µM | IC50 (IMR32 neuroblastoma): ~50 µM | IC50 [8]: > 100 µM | IC50 [9]: ~100 µM | period of significant tumor growth control [10]: more than 67 days | tumor response (LS174T colorectal tumor): responded well | tumor response ([11]; daily dosing): improved response | tumor response ([11]; thrice-weekly dosing): responded | activity against tumors [12]: active | LD100 (Pilot toxicity study; mice, pilot toxicity study): approximately 400 mg/kg body weight | therapeutic index (400/(10–40)) (Pilot toxicity study; mouse, in vivo): 10–40 | toxicity at therapeutically functional doses (Pilot toxicity study; mouse, in vivo): No toxicity | Mean Lung Weight ± SEM (Lewis lung carcinoma; 200 mg/kg i.p. days 9, 11, 13, 15, 19, day 22, control 0.287 ± 0.013 g, 2-tail t-test 0.004): 0.229 ± 0.012 g | Mean No. Metastases ± SEM (Lewis lung carcinoma; 200 mg/kg i.p. days 9, 11, 13, 15, 19, day 22, control 28.0 ± 2.4, 2-tail t-test 0.01): 14.4 ± 4.1 | Difference in Mean Lung Weight, control minus treated (Lewis lung carcinoma; 200 mg/kg i.p., day 22): 0.058 g | Difference in Mean No. Metastases, control minus treated (Lewis lung carcinoma; 200 mg/kg i.p., day 22): 13.6 | reduction in the number of lung metastases (Lewis lung carcinoma; treated animals versus control): ~50% | cytostatic effect (HCT116): cytostatic effect | cytostatic effect (IMR32): cytostatic effect | cytostatic effect (K562): cytostatic effect | cytostatic effect (NB4): cytostatic effect | tumor volume [13]: less than 50 % of the control
